Results taken from US9428733B2, “Method for obtaining pancreatic endocrine cells from adipose tissue-origin cells” (AKIFUMI MATSUYAMA, priority 2005, dated 2016).

Tested on: pancreatic islets obtained from adipose tissue-derived cells
Test: Insulin secretion from pancreatic islets obtained from adipose tissue-derived cells, ELISA of culture supernatant
Type: cell-based, Human
Conditions: 2 hours; for secretion of insulin: RPMI 1640 containing 3.3 mM or 16.7 mM glucose, FIG. 17
Method: The insulin level and the C-peptide level in the culture supernatant were measured using ELISA kit (Mercodia).

SMILES | secretion of insulin (100 μM) | amount (insulin, C-peptide) secreted by islets in medium containing theophylline versus medium without (10 mM theophylline control, 3.3 mM or 16.7 mM glucose, FIGS. 14-16) | secretion of insulin (10 μM)
CC(C)Cn1c(=O)n(C)c(=O)c2[nH]cnc21 [IBMX] | promoted |  | 
C[N+](C)(C)CCOC(N)=O [carbachol] | promoted |  | 
Cn1c(=O)c2[nH]cnc2n(C)c1=O [theophylline] | promoted | similar | 
CCCCNC(=O)NS(=O)(=O)c1ccc(C)cc1 [tolbutamide] |  |  | promoted
